Measured values published in US5364764A, “Fluorescent chloramphenicol derivatives for determination of chloramphenicol acetyltransferase activity” (Molecular Probes, Inc., priority 1992, dated 1994).

Columns and labels:
[1] = system: chloramphenicol acetyltransferase (CAT); conditions: reported by Shaw et al., J. Biol. Chem. 242(4):687 (1967); read-out: Km (Michaelis-Menten constant) for chloramphenicol; cited from earlier work
[2] = target: T1, purified CAT (chloramphenicol acetyltransferase) (Escherichia coli, UniProt P62577); experiment: Relative velocity vs chloramphenicol; type: biochemical; conditions: first ten minutes, substrate 33.2 μM, TRIS pH 7.4, 0.4 mg Acetyl CoA, 0.8U purified enzyme
T1 construct: the pSV2cat reporter type
Experimental: The velocity during the first ten minutes at a substrate concentration of 33.2 μM was determined using Compound 6 and ^14 C chloramphenicol. The reactions were run in 100 μL final volume TRIS pH 7.4 with 0.4 mg of Acetyl CoA and 0.8U of purified enzyme. The concentrations of acetylated products after ten minutes were determined by extraction from the TLC plates and measuring spectrophotometrically, in the case of Compound 6, and by counting radioactivity in the case of ^14 C chloramphenicol. The velocity during the first ten minutes was assumed to be very close to Vmax. The velocity of Compound 6 was 0.66 of the velocity of ^14 C chloramphenicol.

[3] = Solubility in aqueous and nonaqueous solvents; type: physicochemical; conditions: compared with the corresponding fluorescein derivative 36
[4] = target: T1, purified CAT (chloramphenicol acetyltransferase); experiment: Procedure for comparing activity of fluorescent substrates (TLC, conversion to acetylated products); type: biochemical; conditions: 0.8 U purified CAT, acetyl CoA, 1M TRIS pH 7.4, 37° C., 1 hour
Experimental: To a solution of 0.5 mg acetyl CoA in 112 μL of 1M TRIS pH 7.4 was added 7 μL of a solution of 440 μM fluorescent CAT substrate in ethanol. Then 0.8 U of purified CAT in 1 μL of 1 M TRIS (pH 7.4) was added and the solution was incubated at 37° C. for 1 hour. The reaction mixture was extracted with 0.7 mL of ethyl acetate, and the solvent was removed under vacuum. The residue was dissolved in 14 μL of ethyl acetate, spotted on the pre-absorbent area of Whatman LK6 silica-gel TLC plates and developed with 10% methanol in chloroform. A control, run as above but with no enzyme present, was spotted adjacent to each reaction mixture.
Qualitative estimates of substrate activity of each fluorescent derivative were made by examination of the plates for conversion to acetylated products.

T1 sequence (P62577 whole entry, looked up): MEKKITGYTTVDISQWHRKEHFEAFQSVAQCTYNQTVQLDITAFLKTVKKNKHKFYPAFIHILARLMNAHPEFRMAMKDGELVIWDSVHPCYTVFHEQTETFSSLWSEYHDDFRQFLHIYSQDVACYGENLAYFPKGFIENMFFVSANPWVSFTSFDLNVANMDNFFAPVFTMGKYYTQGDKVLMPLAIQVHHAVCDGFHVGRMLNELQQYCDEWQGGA

Row | Compound | Km [1] [µM] | Velocity relative to the velocity of 14C chloramphenicol [2] | Solubility in ethyl acetate [3] | Qualitative estimate of substrate activity (reaction velocity, conversion to acetylated products) [4]
1 | O=C(N[C@H](CO)[C@H](O)c1ccc([N+](=O)[O-])cc1)C(Cl)Cl [chloramphenicol] | ~15 | – | – | –
2 | CC(=O)Nc1ccc([C@@H](O)[C@@H](CO)NC(=O)CCCNC(=O)CC2=CC(C)=[N+]3C2=Cc2c(C)cc(C)n2[B-]3(F)F)cc1 [Compound 6] | – | 0.66 | much more soluble in ethyl acetate | highest reaction velocities
3 | CC(=O)Nc1ccc([C@@H](O)[C@@H](CO)NC(=O)CCCNC(=O)Cc2cc(=O)oc3cc(N(C)C)ccc23)cc1 [Compound 23] | – | – | – | highest reaction velocities
4 | CN(C)c1ccc2c(CC(=O)NCCCC(=O)N[C@H](CO)[C@H](O)c3ccc([N+](=O)[O-])cc3)cc(=O)oc2c1 [Compound 21] | – | – | – | highest reaction velocities
5 | Nc1ccc([C@@H](O)[C@@H](CO)NC(=O)CCCCCNc2ccc([N+](=O)[O-])c3nonc23)cc1 [Compound 28] | – | – | – | highest reaction velocities
